Measured values reported in paper PMC6085350, “Small molecule inhibitors of RAS-effector protein interactions derived using an intracellular antibody fragment” (Nature Communications, 2018).

How the values were obtained:
[1] = test system: AKT phosphorylation (Ser473) in H358 cells (KRAS^G12C); test: Biomarker phosphorylation assay, pAKT, H358; type: cell-based, human; conditions: EGF 10 min
Protocol: Fig. 5 Abd-7 results on RAS-dependent signalling pathways and cell viability. a, b DLD-1 (a) or H358 (b) cells were serum-starved for 24 h, incubated in mono-layer with Abd-7 in a range from 2, 5, 10 and 20 μM for 3 h and stimulated with EGF 10 min. Proteins were extracted and separated by SDS-PAGE and transferred to membranes for Western analysis with anti-pAKT, anti-pERK, anti-pan AKT and anti-pan ERK. Anti-cyclophilin B antibody was the loading control. Signal was developed using standard ECL. c–e Effects of compounds Abd-2, Abd-4, Abd-5, Abd-6, and Abd-7 on the viability of human cancer cells lines was assessed for a 2-D culture of DLD-1 (mutant KRAS^G13D) cells and HT1080 cells (mutant NRAS^Q61K). The cells were treated with a dose range from 0 μM to 20 μ and incubated for 72 h when cell viability was assessed using CellTitreGlo. […] Each experiment was repeated at least three times (a, b) and four times (c, d). Where error bars are presented, they correspond to mean values ± SD of biological repeats
A total of 450,000 DLD1 or 640,000 H358 cells were seeded per well of a six well plate. Approximately, 20 h later, the medium was removed, the cells washed twice with PBS and DMEM without FBS was added and left for 24 h. The medium was removed and 2 ml of DMEM no FBS was added with the appropriate concentration of compound (DMSO, 2, 5, 10 or 20 μM) for 3 h. Cells were stimulated with EGF (50 ng/ml) for 10 min, washed once with PBS and directly lysed in SDS-Tris buffer (1% SDS, 10 mM Tris-HCl pH 7.4) supplemented with protease inhibitors (Sigma) and phosphatase inhibitors (Thermo-Fisher). Cell lysates were sonicated with a Branson Sonifier and the protein concentrations determined by using the Pierce BCA protein assay kit (Thermo-Fisher). Furthermore, 10 μg of protein were resolved on 10 or 12.5% SDS-PAGE and subsequently transferred onto a PVDF membrane (GE). The membrane was blocked (with 10% non-fat milk (Sigma) or 10% BSA (Sigma) in TBS-0.1% Tween20) and incubated overnight with primary antibody at 4 °C. […]

PKBβ = target: T1, PKBβ (Homo sapiens, UniProt P31751); test: Kinase panel (KinaseProfiler); type: biochemical; conditions: 10μM
T1 construct: purchased Eurofins Pharma Discovery Services (KinaseProfiler)
Protocol: (§1) Experiments were performed by Eurofins Pharma Discovery Services. The KinaseProfiler™ assay protocol guide can be downloaded from their website: www.eurofins.com/discoveryservices. The guide contains information on the buffer conditions, substrate and reference inhibitor blank used for each kinase.
(§2) Supplementary Table 3. Assessment of potential interaction of Abd-7 with a human kinase
(§3) Kinase % kinase activity in
(§4) A panel of 14 Kinases (relevant to the RAS pathway) has been screened against Abd-7
(§5) (10μM) and the kinase activity was measured. […] of activity was observe for all
(§6) function of the selected and RAS relevant kinase proteins.

PKBα = target: T2, PKBα (Homo sapiens, UniProt P31749); test: Kinase panel (KinaseProfiler); type: biochemical; conditions: 10μM
T2 construct: purchased Eurofins Pharma Discovery Services (KinaseProfiler)
Protocol: as §1, §2, §3, §4, §5, §6

MEK1 = target: T3, MEK1 (Homo sapiens, UniProt Q02750); test: Kinase panel (KinaseProfiler); type: biochemical; conditions: MEK1, 10μM
T3 construct: purchased Eurofins Pharma Discovery Services (KinaseProfiler)
Protocol: as §1, §2, §3, §4, §5, §6

MAPK1 = target: T4, MAPK1 (Homo sapiens, UniProt P27361); test: Kinase panel (KinaseProfiler); type: biochemical; conditions: MAPK1, 10μM
T4 construct: purchased Eurofins Pharma Discovery Services (KinaseProfiler)
Protocol: as §1, §2, §3, §4, §5, §6

PKBγ = target: T5, PKBγ (Homo sapiens, UniProt Q9Y243); test: Kinase panel (KinaseProfiler); type: biochemical; conditions: 10μM
T5 construct: purchased Eurofins Pharma Discovery Services (KinaseProfiler)
Protocol: as §1, §2, §3, §4, §5, §6

BRAF = target: T6, BRAF (Homo sapiens, UniProt P15056); test: Kinase panel (KinaseProfiler); type: biochemical; conditions: 10μM
T6 construct: purchased Eurofins Pharma Discovery Services (KinaseProfiler)
Protocol: as §1, §2, §3, §4, §5, §6

MAPK2 = target: T7, MAPK2 (Homo sapiens, UniProt P28482); test: Kinase panel (KinaseProfiler); type: biochemical; conditions: MAPK2, 10μM
T7 construct: purchased Eurofins Pharma Discovery Services (KinaseProfiler)
Protocol: as §1, §2, §3, §4, §5, §6

CRAF = target: T8, CRAF (Homo sapiens, UniProt P04049); test: Kinase panel (KinaseProfiler); type: biochemical; conditions: 10μM
T8 construct: purchased Eurofins Pharma Discovery Services (KinaseProfiler)
Protocol: as §1, §2, §3, §4, §5, §6

PDK1 = target: T9, PDK1 (Homo sapiens, UniProt O15530); test: Kinase panel (KinaseProfiler); type: biochemical; conditions: PDK1, 10μM
T9 construct: purchased Eurofins Pharma Discovery Services (KinaseProfiler)
Protocol: as §1, §2, §3, §4, §5, §6

T9 sequence (O15530 whole entry): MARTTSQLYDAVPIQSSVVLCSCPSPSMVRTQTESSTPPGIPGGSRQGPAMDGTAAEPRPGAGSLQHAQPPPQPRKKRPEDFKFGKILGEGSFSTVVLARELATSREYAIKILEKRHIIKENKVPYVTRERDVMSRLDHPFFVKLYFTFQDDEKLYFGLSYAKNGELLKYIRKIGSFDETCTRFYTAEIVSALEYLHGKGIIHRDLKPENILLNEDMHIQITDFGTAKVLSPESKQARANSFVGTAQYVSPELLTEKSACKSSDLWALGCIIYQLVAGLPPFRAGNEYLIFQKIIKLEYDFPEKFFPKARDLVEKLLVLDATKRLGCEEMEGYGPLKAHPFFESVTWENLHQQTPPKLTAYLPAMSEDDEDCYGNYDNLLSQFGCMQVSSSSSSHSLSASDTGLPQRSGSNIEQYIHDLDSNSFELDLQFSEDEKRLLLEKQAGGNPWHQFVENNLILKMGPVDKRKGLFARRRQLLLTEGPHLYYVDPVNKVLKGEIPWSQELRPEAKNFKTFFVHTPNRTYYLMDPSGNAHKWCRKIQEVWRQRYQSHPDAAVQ
T8 sequence (P04049 whole entry): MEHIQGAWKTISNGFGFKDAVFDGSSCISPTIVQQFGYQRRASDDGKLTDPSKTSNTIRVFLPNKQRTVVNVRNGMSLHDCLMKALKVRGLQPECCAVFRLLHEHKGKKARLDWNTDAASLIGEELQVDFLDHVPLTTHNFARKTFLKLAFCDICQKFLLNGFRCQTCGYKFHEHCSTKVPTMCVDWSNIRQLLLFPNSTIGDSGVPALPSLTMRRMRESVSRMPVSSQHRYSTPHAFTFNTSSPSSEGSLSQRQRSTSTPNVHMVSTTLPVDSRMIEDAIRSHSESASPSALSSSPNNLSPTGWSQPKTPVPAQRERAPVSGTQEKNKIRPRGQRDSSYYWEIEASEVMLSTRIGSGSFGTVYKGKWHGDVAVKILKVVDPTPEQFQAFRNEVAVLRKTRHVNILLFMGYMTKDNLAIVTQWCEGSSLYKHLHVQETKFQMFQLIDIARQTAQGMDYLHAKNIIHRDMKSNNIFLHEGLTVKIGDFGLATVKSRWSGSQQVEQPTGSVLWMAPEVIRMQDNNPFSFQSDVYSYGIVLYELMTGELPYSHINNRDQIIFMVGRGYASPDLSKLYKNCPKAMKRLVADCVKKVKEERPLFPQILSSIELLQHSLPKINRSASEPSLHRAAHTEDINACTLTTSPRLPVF
T4 sequence (P27361 whole entry): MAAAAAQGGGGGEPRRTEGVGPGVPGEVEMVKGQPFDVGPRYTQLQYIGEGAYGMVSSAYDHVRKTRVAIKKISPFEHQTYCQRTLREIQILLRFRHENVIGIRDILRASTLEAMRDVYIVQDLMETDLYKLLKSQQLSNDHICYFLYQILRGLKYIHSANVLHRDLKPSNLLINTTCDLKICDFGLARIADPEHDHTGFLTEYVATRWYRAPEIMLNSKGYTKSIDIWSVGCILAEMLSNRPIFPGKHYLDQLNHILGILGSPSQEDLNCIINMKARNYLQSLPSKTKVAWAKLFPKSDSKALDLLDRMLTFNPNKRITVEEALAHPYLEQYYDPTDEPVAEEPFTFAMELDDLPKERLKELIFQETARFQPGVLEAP
T1 sequence (P31751 whole entry): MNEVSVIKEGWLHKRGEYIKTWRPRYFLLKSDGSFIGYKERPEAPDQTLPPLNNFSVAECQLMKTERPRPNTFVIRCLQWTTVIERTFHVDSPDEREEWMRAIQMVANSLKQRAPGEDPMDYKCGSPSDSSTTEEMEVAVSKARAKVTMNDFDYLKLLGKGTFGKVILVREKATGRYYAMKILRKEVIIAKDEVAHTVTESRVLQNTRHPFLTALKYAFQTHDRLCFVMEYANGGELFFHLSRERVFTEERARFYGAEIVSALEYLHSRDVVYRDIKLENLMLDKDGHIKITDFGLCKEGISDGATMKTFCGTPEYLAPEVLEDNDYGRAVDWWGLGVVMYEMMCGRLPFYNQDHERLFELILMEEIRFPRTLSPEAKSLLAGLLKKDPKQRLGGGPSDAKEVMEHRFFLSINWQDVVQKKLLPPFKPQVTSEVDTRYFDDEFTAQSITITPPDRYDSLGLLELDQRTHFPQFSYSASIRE
T2 sequence (P31749 whole entry): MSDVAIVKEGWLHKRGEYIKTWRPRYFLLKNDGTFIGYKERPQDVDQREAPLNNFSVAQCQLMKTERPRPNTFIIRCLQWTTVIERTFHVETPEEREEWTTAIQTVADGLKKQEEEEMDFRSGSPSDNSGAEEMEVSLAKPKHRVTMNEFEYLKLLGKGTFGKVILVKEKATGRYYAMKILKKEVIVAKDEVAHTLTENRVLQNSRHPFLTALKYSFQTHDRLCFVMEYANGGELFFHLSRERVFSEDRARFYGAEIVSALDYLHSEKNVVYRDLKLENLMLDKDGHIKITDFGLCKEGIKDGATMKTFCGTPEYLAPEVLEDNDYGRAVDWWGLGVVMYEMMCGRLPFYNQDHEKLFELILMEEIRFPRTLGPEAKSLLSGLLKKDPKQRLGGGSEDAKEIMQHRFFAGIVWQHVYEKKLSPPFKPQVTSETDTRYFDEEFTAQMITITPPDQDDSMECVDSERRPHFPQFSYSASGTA
T7 sequence (P28482 whole entry): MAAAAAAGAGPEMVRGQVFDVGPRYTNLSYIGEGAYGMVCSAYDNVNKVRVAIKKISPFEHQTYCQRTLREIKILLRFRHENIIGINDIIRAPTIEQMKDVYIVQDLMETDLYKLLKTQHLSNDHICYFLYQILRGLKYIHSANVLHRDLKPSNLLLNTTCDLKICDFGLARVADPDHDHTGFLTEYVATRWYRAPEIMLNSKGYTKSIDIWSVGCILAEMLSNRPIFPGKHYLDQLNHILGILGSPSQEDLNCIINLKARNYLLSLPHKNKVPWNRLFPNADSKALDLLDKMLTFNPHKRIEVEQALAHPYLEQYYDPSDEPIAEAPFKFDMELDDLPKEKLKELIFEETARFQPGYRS
T6 sequence (P15056 whole entry): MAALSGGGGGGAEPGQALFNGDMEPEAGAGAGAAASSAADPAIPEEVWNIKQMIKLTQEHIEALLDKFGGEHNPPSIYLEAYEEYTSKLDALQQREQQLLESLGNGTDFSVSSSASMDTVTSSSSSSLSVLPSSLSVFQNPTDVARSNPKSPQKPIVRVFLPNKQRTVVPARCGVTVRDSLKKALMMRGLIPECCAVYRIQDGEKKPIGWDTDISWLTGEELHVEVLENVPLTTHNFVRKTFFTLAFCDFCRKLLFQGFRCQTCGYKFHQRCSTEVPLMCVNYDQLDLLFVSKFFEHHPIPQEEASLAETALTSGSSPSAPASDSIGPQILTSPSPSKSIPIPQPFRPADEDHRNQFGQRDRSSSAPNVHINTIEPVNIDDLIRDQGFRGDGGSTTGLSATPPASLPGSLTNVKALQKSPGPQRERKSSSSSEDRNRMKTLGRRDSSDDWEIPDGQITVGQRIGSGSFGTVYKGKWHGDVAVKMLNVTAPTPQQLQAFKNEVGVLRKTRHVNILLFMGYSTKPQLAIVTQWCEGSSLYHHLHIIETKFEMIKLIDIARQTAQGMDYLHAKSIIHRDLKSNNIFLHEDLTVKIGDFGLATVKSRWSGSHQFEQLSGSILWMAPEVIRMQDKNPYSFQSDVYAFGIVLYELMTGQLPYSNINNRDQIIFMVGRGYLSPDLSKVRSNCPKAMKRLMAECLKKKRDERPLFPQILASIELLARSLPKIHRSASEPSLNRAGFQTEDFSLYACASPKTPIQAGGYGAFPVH
T5 sequence (Q9Y243 whole entry): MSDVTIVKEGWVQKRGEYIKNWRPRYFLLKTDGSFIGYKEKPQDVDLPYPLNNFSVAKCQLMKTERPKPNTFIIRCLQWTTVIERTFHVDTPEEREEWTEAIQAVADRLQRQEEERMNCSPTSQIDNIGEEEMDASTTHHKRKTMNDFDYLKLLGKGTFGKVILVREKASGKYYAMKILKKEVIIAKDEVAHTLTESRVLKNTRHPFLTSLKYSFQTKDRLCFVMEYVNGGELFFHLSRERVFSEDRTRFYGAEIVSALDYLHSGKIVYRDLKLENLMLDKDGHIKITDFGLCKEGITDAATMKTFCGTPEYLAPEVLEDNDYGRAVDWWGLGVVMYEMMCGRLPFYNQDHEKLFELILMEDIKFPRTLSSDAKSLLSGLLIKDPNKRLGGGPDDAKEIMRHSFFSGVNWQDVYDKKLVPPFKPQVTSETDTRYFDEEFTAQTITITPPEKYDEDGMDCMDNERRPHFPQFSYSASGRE
T3 sequence (Q02750 whole entry): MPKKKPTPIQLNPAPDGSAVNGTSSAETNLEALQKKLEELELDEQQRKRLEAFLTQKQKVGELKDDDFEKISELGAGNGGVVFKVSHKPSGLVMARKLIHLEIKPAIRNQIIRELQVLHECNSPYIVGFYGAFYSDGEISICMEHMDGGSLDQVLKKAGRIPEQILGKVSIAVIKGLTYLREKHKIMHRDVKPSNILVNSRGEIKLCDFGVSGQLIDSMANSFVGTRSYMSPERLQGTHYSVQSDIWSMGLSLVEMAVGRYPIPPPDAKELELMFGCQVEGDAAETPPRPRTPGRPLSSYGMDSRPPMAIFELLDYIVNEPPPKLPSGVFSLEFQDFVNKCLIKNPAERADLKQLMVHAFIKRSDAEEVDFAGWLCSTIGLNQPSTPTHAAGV

COc1nc(-c2cccc3c2OCCO3)ccc1Nc1ccc(CN(C)C)cc1 [Abd-7]
inhibition of AKT phosphorylation ([1]; H358, 20 μM, 3 h): complete inhibition
concentration at which inhibition of AKT phosphorylation initiates ([1]; H358, starved 24 h, 3 h compound, Western): 2 µM
inhibition at 10 µM ([1]; Homo sapiens, NCI-H358, H358, 10 μM, 3 h): > 50%
% kinase activity in the presence of Abd-7 (PKBβ): 93%
% kinase activity in the presence of Abd-7 (PKBα): 91%
% kinase activity in the presence of Abd-7 (MEK1): 105%
% kinase activity in the presence of Abd-7 (MAPK1): 126%
% kinase activity in the presence of Abd-7 (PKBγ): 103%
% kinase activity in the presence of Abd-7 (BRAF): 104%
% kinase activity in the presence of Abd-7 (MAPK2): 111%
% kinase activity in the presence of Abd-7 (CRAF): 101%
% kinase activity in the presence of Abd-7 (PDK1): 107%
